For data set [1], the system named is U2OS cells. Kind of data set: Cleaved caspase-3 (apoptosis) with hydroxyurea. The format is cell-based. Conditions: 24 hr, hydroxyurea (2 mM) alone.
Experimental: Referring to FIG. 5, the impact of Chk1 inhibition by AZD7762 on cell apoptosis from treatment with the ATR inhibitor VE-821 and a representative DNA damaging agent, hydroxyl urea (2 mM), was assessed by measuring levels of cleaved caspase-3, a widely used marker of apoptosis. U2OS cells were treated for 24 hr. with the DNA damaging agent hydroxyurea and varied doses of AZD7762 and/or VE-821. Cells were subsequently stained with anti-cleavage caspase 3 and β actin antibodies and confocal microscopy used to take and quantify images. Data are presented as % cells positive for cleaved capsae-3.
The test system of data set [2] is HA1EB-GFP parental cells. Kind of data set: Cell viability by resazurin staining. The format is cell-based. Conditions: 72 hours, VE-821 up to 5 μM, AZD7762 30 nM.
Data set [3] has as its system BJ-hTERT parental cells. Briefly: Cell viability by resazurin staining. Conditions: 72 hours, AZD7762 30 nM. The format is cell-based.
Experimental: Referring to FIG. 2D, an isogenic cell pair was used to assess the impact of loss of p53 and RB on cell sensitivity to the combination of VE-821 and AZD7762 (BJ-hTERT parental cells vs BJ-SV40T cells expressing the Large Tumor Antigen which inactivates p53 and RB function). In addition, the impact of expression of the H-RAS oncogene was assessed in the BJ-SV40T cells transformed with activated H-RAS(G12V) (BJ RAS). Cells were treated with either VE-821 alone (at concentrations up to 5 μM), AZD7762 alone (30 nM) or the combination of VE-821 and AZD7762 for 72 hours.
Data set [4] relates to MX-1 breast cancer cell line. Conditions: AZD7762 25 mg/kg intraperitoneal, VE-822 60 mg/kg oral gavage; for survival: combination P<0.05.
Experimental: (§2) In the case of the MX-1 model, 2 million cells in 50% matrigel were injected in nude mice and for the H460 model 5 million cells in PBS were injected in nude mice. After 8-9 days of implantation animals were divided into 4 groups of 5 animals based on tumor size; with mean tumor volume of 130 mm^3. […] Body weight and tumor volume were measured twice a week. Tumor volume was measured with caliper and shown as mean±S.E.M (length×width×width×0.52).
In data set [5] the test system is H460 lung cancer cell line. Conditions: AZD7762 25 mg/kg intraperitoneal, VE-822 60 mg/kg oral gavage; for survival: combination vs monotherapy P<0.01; for tumor size / tumor growth: combination vs monotherapy P<0.05.
Experimental: as §2
Data set [6] relates to cMYC transformed cells, HA1EB-GFP-cMYC. Kind of data set: Cell viability by resazurin staining. Conditions: 72 hours, VE-821 up to 5 μM, AZD7762 30 nM.
Data set [7] deals with BJ-SV40T cells (p53 and RB inactivated). Briefly: Cell viability by resazurin staining. Conditions: 72 hours, VE-821 up to 5 μM, AZD7762 30 nM.
Experimental: (§3) In addition, the impact of expression of the H-RAS oncogene was assessed in the BJ-SV40T cells transformed with activated H-RAS(G12V) (BJ RAS).
Data set [8] has as its system BJ RAS cells (BJ-SV40T transformed with activated H-RAS(G12V)). Briefly: Cell viability by resazurin staining. Conditions: 72 hours, VE-821 up to 5 μM, AZD7762 30 nM.
Experimental: as §3
Data set [9] has as its system DLD-1 cells expressing the inactive mutant form of Chk1 (S317A/-). Kind of data set: Clonogenic survival assay. The format is cell-based. Conditions: Homo sapiens; DLD-1 Chk1 S317A/-; 1 μM VE-821; read-out: viable cells remaining. On the procedure: (§1) 500 cells of U2OS, MCF-7, DLD-1, DLD-1 Chk-1^S317A/-, DLD-1 Chk-1^+/−, DLD-1 ATR^S/S and 1000 cells of VH-10 were plated on 10 cm plate. After 5 hr. of incubation (5% CO2 at 37° C.) vehicle (0.05% DMSO max) various concentration of ATR inhibitor VE-821 were directly added to the media containing plate and incubated for 72 hr. At the end of 72 hr. of incubation, vehicle and drug containing media was replaced with fresh media and further incubated for another 5-8 days before plates were fixed and stained with 4% methylene blue in MeOH and colonies were counted manually. Each data point represents a triplicate data set±SEM.

In data set [10] the test system is MCF-7 cancer cells. Kind of data set: Clonogenic survival assay. The format is cell-based. Conditions: 1 μM VE-821, 72 hr, AZD7762 20 nM where combined. On the procedure:
as §1

Data set [11] relates to U2OS cancer cells. Briefly: Clonogenic survival assay. The format is cell-based. Conditions: 1 μM VE-821, 72 hr, AZD7762 20 nM where combined. On the procedure: as §1
Data set [12] deals with Parental DLD-1 cells. Briefly: cells. The format is cell-based. Conditions: Homo sapiens, DLD-1, read-out: cell viability. On the procedure: as §1
Data set [13] addresses ATR (Homo sapiens, UniProt Q13535). Conditions: 1 μM VE-821; cited from earlier work.

ATR, sequence (Q13535 whole entry): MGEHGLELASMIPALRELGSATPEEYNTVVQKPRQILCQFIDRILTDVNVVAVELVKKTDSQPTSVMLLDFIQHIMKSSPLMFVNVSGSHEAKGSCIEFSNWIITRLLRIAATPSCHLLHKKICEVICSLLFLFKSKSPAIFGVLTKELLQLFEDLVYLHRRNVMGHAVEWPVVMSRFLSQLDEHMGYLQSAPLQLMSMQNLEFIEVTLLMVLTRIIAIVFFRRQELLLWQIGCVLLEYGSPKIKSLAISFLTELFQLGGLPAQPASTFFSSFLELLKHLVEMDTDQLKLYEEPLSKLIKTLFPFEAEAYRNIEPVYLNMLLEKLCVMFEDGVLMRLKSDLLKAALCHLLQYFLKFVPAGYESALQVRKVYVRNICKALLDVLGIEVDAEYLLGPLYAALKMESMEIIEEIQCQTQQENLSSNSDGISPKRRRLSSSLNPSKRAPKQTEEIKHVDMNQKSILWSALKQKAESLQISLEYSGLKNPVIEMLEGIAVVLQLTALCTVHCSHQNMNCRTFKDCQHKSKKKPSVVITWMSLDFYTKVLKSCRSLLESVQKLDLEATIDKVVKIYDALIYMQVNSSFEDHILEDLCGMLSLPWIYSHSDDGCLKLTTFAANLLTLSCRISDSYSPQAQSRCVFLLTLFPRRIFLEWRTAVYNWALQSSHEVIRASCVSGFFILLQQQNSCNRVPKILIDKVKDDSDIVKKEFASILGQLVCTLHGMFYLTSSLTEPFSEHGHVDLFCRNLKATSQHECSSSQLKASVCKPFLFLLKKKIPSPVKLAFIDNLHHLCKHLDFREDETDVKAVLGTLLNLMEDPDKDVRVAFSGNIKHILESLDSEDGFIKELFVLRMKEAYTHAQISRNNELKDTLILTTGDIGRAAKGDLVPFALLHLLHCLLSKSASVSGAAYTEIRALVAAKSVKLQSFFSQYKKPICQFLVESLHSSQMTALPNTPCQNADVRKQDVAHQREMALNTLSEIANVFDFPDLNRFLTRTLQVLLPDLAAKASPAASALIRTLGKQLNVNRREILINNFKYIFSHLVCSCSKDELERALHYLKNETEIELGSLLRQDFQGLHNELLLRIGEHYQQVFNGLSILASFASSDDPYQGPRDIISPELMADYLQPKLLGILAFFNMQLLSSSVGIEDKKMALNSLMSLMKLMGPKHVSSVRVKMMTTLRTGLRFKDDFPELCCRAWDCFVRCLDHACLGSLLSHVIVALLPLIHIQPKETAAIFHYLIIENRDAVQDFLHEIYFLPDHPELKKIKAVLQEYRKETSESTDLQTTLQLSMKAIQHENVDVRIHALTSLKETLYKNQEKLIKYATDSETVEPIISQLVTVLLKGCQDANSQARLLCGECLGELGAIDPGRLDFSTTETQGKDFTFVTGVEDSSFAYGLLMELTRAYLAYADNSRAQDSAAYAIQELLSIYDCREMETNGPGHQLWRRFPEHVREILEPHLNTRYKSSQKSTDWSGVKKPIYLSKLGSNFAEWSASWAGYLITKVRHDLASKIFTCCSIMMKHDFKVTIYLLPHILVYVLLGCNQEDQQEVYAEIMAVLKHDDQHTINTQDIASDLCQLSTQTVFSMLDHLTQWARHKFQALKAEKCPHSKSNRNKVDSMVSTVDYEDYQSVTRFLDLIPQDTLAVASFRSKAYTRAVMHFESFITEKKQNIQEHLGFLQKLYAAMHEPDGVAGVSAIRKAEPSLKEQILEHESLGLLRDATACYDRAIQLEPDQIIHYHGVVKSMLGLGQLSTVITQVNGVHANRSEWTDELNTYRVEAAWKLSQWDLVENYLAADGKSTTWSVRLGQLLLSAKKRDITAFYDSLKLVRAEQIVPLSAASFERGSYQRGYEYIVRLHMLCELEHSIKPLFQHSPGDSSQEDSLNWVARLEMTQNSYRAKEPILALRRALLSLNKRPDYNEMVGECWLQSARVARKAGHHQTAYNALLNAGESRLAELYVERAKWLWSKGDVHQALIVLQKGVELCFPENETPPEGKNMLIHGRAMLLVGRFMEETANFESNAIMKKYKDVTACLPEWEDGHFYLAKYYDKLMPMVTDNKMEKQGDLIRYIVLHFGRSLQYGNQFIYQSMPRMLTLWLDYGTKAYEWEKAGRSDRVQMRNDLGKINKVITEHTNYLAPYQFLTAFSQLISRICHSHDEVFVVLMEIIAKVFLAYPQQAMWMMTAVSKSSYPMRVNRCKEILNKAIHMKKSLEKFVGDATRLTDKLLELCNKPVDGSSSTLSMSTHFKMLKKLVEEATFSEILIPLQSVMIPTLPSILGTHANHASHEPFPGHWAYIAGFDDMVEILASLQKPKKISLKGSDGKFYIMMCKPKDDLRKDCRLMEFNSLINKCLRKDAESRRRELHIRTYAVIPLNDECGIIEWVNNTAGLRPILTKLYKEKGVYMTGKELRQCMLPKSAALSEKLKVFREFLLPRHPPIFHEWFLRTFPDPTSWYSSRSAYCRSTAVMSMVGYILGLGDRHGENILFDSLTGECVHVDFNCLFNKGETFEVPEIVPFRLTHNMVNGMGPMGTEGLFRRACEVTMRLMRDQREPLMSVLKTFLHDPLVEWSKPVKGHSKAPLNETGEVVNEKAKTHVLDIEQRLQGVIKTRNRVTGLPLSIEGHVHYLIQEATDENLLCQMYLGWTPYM
ATR, sequence (Q8WXE1 whole entry partner): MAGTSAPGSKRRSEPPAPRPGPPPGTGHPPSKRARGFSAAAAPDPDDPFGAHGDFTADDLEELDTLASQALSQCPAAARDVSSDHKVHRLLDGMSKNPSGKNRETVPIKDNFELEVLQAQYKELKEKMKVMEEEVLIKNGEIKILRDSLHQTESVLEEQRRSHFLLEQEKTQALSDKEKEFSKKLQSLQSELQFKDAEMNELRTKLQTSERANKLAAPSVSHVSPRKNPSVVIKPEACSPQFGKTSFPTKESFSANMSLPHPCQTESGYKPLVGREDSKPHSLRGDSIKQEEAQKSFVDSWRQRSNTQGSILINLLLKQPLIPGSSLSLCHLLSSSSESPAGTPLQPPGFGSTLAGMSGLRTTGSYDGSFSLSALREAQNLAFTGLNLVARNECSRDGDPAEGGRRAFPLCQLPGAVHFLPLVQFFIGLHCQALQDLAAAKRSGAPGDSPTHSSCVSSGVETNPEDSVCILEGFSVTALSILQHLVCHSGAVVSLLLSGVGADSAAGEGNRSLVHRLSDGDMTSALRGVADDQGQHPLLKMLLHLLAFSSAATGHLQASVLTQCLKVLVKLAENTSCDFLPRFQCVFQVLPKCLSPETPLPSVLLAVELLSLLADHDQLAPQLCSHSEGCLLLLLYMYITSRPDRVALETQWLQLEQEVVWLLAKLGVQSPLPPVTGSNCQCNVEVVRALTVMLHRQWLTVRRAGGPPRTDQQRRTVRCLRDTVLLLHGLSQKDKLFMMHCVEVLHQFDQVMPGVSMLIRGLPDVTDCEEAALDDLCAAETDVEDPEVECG

As for `NC(=O)NO` [hydroxyurea], the “cells positive for cleaved caspase-3” value in data set [1] was less than 0.5%.
Consider `NC(=O)Nc1cc(-c2cccc(F)c2)sc1C(=O)N[C@H]1CCCNC1` [AZD7762, reference compound], for which the effect on viability result in data set [2] is listed as “Neither VE-821 nor AZD7762 had a marked effect”; in [3], “did not have a marked effect”. Further, the “tumor size / tumor growth” value in data set [4] is listed as “reduced tumor growth”; in data set [5], “minimal impact”. The values for the survival entry in data set [4] and in [5] were “no impact” and “minimal impact”, respectively. Further, the values for the viable cells remaining result in data set [6], in data set [7] and in data set [8] were “did not impact the viability”, “did not have a marked effect” and “did not have a marked effect”, respectively.
As to `CNCc1ccc(-c2cc(-c3nc(-c4ccc(S(=O)(=O)C(C)C)cc4)cnc3N)on2)cc1` [VE-822], in data set [4], the “tumor size / tumor growth” value is on record as “minimal impact” and the survival entry was “minimal impact”. In data set [5], the survival result is given as “minimal impact” and the “tumor size / tumor growth” value was “minimal impact”.
Consider `CS(=O)(=O)c1ccc(-c2cnc(N)c(C(=O)Nc3ccccc3)n2)cc1` [VE-821], for which the viability at 1 µM in data set [9] was less than 3%; in data set [12], roughly 100%. The clonogenic survival in [10] and in [11] was 10-20% in each case. The effect on viability entry in data set [2] is “Neither VE-821 nor AZD7762 had a marked effect”. Besides, the ATR activity inhibited result in [13] is “about 50%”. Also, the viable cells remaining in [6] is listed as roughly 40%; in [8], roughly 60%.
